Source: patent publication US9845340B2, “Peptides that specifically bind HGF receptor (cMet) and uses thereof” (Dyax Corp., priority 2003, dated 2017)

Columns and labels:
[1] = biological target: T1, 3T3 cells that over-express human cMet (Homo sapiens, UniProt P08581); assay: Whole cell ELISA of peptide-displaying phage; type: cell-based; conditions: phage isolate; 3T3 cells expressing human cMet vs. non-expressing 3T3 cells
T1 construct: expressed in transfected cells; host or cells: 3T3 cells
Protocol: Whole cell ELISAs were performed using 3T3 cells that over-express human cMet. […] Briefly, 96-well plates were seeded with 10^5 cells per well. The plates were centrifuged for 5 minutes at 1600 rpm to pellet the cells. The resulting cell layer was fixed with 0.1% (v/v) glutaraldehyde for 12 minutes at 37 C. […] Peptide-displaying phage also were blocked in the above solution for 1 hour at 37 C. 100 μL of blocked phage was then added to each well and the plates were incubated for 1 hour at room temperature. The plates were washed with PBST. cMet-binding peptide-displaying phage were detected using an HRP-conjugated anti-M13 antibody.

cMet-Fc fusion protein = cMet-Fc fusion protein (Homo sapiens, UniProt P08581); assay: Protein phage ELISA: peptide-displaying phage binding to soluble cMet-Fc versus TRAIL-Fc; conditions: phage isolate; cMet-Fc vs. TRAIL-Fc
Protocol: Protein phage ELISAs using peptide-displaying phage isolates from the various selection campaigns were performed to determine specificity of the peptides for cMet versus an unrelated Fc-fusion protein (TRAIL-Fc). Briefly, 384-well plates were coated overnight at 4 C with 0.5 μg/mL of cMet-Fc fusion protein or TRAIL-Fc fusion protein (background). The plates were blocked for 2 hours 37C with 3% (w/v) BSA in PBS containing 0.05% (v/v) Tween-20 (PBST). The plates were washed with PBST and 100 μL of peptide-displaying phage were added to each well. The plates were incubated for 2 hours at room temperature and washed with PBST. cMet-binding peptide-displaying phage were detected using an HRP-conjugated anti-M13 antibody.

T1 sequence (P08581 25-1390): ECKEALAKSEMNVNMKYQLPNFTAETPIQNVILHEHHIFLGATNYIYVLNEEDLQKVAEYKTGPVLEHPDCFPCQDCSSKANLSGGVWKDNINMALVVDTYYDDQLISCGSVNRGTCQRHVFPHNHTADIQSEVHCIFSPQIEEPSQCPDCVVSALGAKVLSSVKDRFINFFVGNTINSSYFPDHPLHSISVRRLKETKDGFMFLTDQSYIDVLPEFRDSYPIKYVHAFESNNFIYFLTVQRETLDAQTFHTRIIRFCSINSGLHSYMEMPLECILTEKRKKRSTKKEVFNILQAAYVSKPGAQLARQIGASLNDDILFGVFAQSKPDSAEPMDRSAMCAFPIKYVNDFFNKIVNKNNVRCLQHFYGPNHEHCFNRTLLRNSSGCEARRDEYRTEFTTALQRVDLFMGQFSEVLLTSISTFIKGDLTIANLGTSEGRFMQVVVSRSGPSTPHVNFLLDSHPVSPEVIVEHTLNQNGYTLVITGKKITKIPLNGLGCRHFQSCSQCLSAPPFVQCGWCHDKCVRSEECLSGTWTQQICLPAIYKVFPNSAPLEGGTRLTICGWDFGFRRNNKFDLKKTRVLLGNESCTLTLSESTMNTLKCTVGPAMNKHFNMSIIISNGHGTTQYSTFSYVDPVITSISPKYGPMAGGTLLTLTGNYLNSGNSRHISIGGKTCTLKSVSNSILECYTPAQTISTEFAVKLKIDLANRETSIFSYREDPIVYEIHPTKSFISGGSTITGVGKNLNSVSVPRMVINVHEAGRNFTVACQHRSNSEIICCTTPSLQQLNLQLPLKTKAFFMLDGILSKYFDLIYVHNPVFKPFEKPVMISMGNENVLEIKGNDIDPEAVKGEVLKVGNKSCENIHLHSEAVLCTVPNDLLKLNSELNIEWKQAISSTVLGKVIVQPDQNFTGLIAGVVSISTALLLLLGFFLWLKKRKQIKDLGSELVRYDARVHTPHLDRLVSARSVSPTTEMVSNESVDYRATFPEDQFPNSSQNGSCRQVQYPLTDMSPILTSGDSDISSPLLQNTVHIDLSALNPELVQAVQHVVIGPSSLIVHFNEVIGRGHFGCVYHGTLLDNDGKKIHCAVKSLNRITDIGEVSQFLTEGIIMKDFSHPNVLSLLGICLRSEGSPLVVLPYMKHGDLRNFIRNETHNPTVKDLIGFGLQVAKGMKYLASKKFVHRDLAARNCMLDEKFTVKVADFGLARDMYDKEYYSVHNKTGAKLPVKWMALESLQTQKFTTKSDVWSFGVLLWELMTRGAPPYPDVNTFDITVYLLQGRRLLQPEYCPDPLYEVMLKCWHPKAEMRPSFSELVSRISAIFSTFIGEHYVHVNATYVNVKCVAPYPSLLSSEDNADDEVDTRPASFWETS
Sequence of cMet-Fc fusion protein (P08581 25-307 limits assumed): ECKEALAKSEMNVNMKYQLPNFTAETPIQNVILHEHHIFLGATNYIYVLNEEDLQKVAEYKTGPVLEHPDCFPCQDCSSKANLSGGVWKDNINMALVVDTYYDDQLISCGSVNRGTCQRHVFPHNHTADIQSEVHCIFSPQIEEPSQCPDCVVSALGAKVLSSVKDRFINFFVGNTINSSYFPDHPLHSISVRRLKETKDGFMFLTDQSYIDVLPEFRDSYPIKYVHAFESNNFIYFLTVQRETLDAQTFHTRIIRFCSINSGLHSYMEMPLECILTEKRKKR
Sequence of cMet-Fc fusion protein (P08581 with tags, fused parts or gaps limits assumed): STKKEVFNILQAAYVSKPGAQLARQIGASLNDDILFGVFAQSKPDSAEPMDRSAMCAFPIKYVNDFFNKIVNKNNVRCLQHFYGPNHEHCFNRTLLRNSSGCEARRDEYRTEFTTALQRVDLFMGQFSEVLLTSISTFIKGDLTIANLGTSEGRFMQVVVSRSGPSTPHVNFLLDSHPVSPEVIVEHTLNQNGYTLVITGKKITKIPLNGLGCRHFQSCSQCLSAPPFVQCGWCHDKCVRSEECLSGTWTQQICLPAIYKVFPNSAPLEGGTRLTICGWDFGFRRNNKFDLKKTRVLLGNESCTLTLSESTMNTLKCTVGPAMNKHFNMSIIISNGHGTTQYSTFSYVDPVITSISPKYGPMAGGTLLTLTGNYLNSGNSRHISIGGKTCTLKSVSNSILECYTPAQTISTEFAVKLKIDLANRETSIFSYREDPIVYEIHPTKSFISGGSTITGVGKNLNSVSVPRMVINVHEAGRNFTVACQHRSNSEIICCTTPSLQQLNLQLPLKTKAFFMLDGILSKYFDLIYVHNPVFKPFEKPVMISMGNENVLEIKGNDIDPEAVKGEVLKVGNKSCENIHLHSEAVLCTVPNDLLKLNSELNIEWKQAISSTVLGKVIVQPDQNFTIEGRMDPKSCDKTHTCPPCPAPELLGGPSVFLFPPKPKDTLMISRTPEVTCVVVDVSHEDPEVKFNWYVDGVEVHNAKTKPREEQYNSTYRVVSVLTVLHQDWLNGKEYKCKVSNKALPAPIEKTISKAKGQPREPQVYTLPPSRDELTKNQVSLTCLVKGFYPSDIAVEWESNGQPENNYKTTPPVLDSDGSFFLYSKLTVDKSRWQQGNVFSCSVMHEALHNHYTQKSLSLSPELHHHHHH

| WC ELISA [1] [fold over background] | Protein ELISA (cMet-Fc fusion protein) [fold over background] | Structure (SMILES) |
| --- | --- | --- |
| 1.23 | 8.9 | CC[C@H](C)[C@H](NC(=O)[C@H](Cc1ccccc1)NC(=O)[C@H](CCC(N)=O)NC(=O)[C@H](Cc1ccccc1)NC(=O)[C@@H](NC(=O)[C@H](Cc1c[nH]c2ccccc12)NC(=O)[C@@H](NC(=O)[C@H](CC(=O)O)NC(=O)[C@H](Cc1ccc(O)cc1)NC(=O)[C@H](CCC(N)=O)NC(=O)[C@H](C)NC(C)=O)[C@@H](C)O)C(C)C)C(=O)N[C@@H](Cc1c[nH]cn1)C(=O)N[C@@H](CCC(=O)O)C(=O)N[C@H](C(=O)N1CCC[C@H]1C(=O)NCC(=O)N[C@@H](CCC(=O)O)C(=O)N[C@@H](CC(C)C)C(=O)N[C@H](C(=O)N[C@@H](C)C(=O)N[C@@H](CCSC)C(=O)N[C@@H](CCC(N)=O)C(=O)NCC(=O)NCC(=O)NCC(=O)N[C@@H](CCCCNC(=O)c1ccc2c(c1)C(=O)OC21c2ccc(O)cc2Oc2cc(O)ccc21)C(N)=O)C(C)C)C(C)C [SEQ ID NO: 454] |
| 1.33 | 5.7 | CC[C@H](C)[C@H](NC(=O)[C@H](C)NC(=O)[C@H](CCC(=O)O)NC(=O)[C@H](C)NC(=O)[C@@H](NC(=O)CNC(=O)[C@@H](NC(=O)[C@H](CCC(N)=O)NC(=O)[C@H](C)NC(C)=O)C(C)C)[C@@H](C)O)C(=O)N[C@@H](CCSC)C(=O)N[C@@H](Cc1ccccc1)C(=O)N[C@@H](CO)C(=O)N[C@@H](CC(=O)O)C(=O)N[C@H](C(=O)N[C@@H](CCC(=O)O)C(=O)N[C@@H](CC(=O)O)C(=O)N[C@H](C(=O)NCC(=O)N[C@H](C(=O)N[C@@H](Cc1c[nH]cn1)C(=O)N[C@@H](CCCCN)C(=O)N[C@@H](Cc1ccccc1)C(=O)NCC(=O)NCC(=O)NCC(=O)N[C@@H](CCCCNC(=O)c1ccc2c(c1)C(=O)OC21c2ccc(O)cc2Oc2cc(O)ccc21)C(N)=O)C(C)C)[C@@H](C)O)C(C)C [SEQ ID NO: 459] |
| 1.27 | 4.5 | CC[C@H](C)[C@H](NC(=O)[C@H](Cc1c[nH]cn1)NC(=O)[C@H](CC(C)C)NC(=O)[C@@H](NC(=O)[C@H](CCSC)NC(=O)[C@H](CCSC)NC(=O)[C@H](CCC(N)=O)NC(=O)CNC(=O)[C@H](Cc1ccc(O)cc1)NC(=O)[C@H](CCC(N)=O)NC(=O)[C@H](Cc1c[nH]cn1)NC(=O)[C@H](CCC(N)=O)NC(=O)[C@H](C)NC(C)=O)C(C)C)C(=O)N[C@@H](CCC(N)=O)C(=O)N[C@@H](Cc1ccc(O)cc1)C(=O)N[C@@H](CC(=O)O)C(=O)N[C@@H](CCSC)C(=O)NCC(=O)N[C@@H](CCC(=O)O)C(=O)N[C@@H](Cc1ccccc1)C(=O)N[C@H](C(=O)N1CCC[C@H]1C(=O)NCC(=O)NCC(=O)NCC(=O)N[C@@H](CCCCNC(=O)c1ccc2c(c1)C(=O)OC21c2ccc(O)cc2Oc2cc(O)ccc21)C(N)=O)[C@@H](C)CC [SEQ ID NO: 462] |
| 1.23 | 4.4 | CC[C@H](C)[C@H](NC(=O)[C@H](CCC(N)=O)NC(=O)[C@H](CCCNC(=N)N)NC(=O)CNC(=O)[C@H](CO)NC(=O)[C@H](CC(=O)O)NC(=O)[C@H](CC(=O)O)NC(=O)[C@@H](NC(=O)[C@@H]1CCCN1C(=O)[C@H](Cc1ccccc1)NC(=O)[C@@H](NC(=O)[C@H](Cc1ccc(O)cc1)NC(=O)[C@@H]1CCCN1C(=O)[C@H](CO)NC(=O)[C@H](CCC(N)=O)NC(=O)[C@H](C)NC(C)=O)[C@@H](C)CC)[C@@H](C)CC)C(=O)N[C@@H](Cc1ccccc1)C(=O)N[C@H](C(=O)N[C@H](C(=O)N[C@@H](CCC(N)=O)C(=O)N[C@@H](Cc1c[nH]c2ccccc12)C(=O)NCC(=O)NCC(=O)NCC(=O)NCC(=O)N[C@@H](CCCCNC(=O)c1ccc2c(c1)C(=O)OC21c2ccc(O)cc2Oc2cc(O)ccc21)C(N)=O)[C@@H](C)CC)C(C)C [SEQ ID NO: 463] |

Further lines, the compound ahead of its results:

| Structure (SMILES) | WC ELISA [1] [fold over background] | Protein ELISA (cMet-Fc fusion protein) [fold over background] |
| --- | --- | --- |
| CSCC[C@H](NC(=O)CNC(=O)[C@@H]1CCCN1C(=O)[C@H](CO)NC(=O)[C@H](CO)NC(=O)[C@H](Cc1c[nH]c2ccccc12)NC(=O)[C@H](CCCNC(=N)N)NC(=O)[C@H](CCC(N)=O)NC(=O)[C@H](C)NC(C)=O)C(=O)N[C@@H](CO)C(=O)N[C@@H](CCC(N)=O)C(=O)N[C@@H](CO)C(=O)N[C@@H](Cc1ccccc1)C(=O)N[C@H](C(=O)N[C@@H](CC(C)C)C(=O)N[C@@H](CCC(=O)O)C(=O)N[C@@H](Cc1c[nH]c2ccccc12)C(=O)N[C@@H](CCCCN)C(=O)N[C@@H](Cc1c[nH]c2ccccc12)C(=O)N[C@@H](CC(N)=O)C(=O)N[C@@H](CC(=O)O)C(=O)N[C@@H](CC(N)=O)C(=O)NCC(=O)NCC(=O)NCC(=O)N[C@@H](CCCCNC(=O)c1ccc2c(c1)C(=O)OC21c2ccc(O)cc2Oc2cc(O)ccc21)C(N)=O)C(C)C [SEQ ID NO: 453] | 1.30 | 11.3 |
| CSCC[C@H](NC(=O)[C@@H]1CCCN1C(=O)[C@H](CO)NC(=O)CNC(=O)[C@@H](NC(=O)[C@H](CCC(N)=O)NC(=O)[C@H](C)NC(C)=O)C(C)C)C(=O)N[C@@H](CC(C)C)C(=O)N1CCC[C@H]1C(=O)N[C@@H](CO)C(=O)N[C@@H](Cc1c[nH]c2ccccc12)C(=O)N[C@@H](Cc1ccccc1)C(=O)N[C@@H](CO)C(=O)N[C@@H](Cc1ccccc1)C(=O)N[C@@H](CCC(=O)O)C(=O)N[C@@H](C)C(=O)N[C@@H](CC(N)=O)C(=O)N[C@@H](Cc1c[nH]c2ccccc12)C(=O)N[C@@H](CO)C(=O)N[C@@H](CO)C(=O)NCC(=O)NCC(=O)NCC(=O)N[C@@H](CCCCNC(=O)c1ccc2c(c1)C(=O)OC21c2ccc(O)cc2Oc2cc(O)ccc21)C(N)=O [SEQ ID NO: 456] | 1.30 | 7.0 |
| CSCC[C@H](NC(=O)[C@H](CC(=O)O)NC(=O)[C@H](C)NC(=O)[C@H](CC(=O)O)NC(=O)[C@H](CCC(N)=O)NC(=O)[C@H](CC(C)C)NC(=O)[C@H](CCC(=O)O)NC(=O)[C@H](Cc1ccc(O)cc1)NC(=O)[C@H](Cc1ccc(O)cc1)NC(=O)[C@@H]1CCCN1C(=O)[C@H](CCC(N)=O)NC(=O)[C@H](C)NC(C)=O)C(=O)N[C@@H](CC(C)C)C(=O)N[C@@H](CC(C)C)C(=O)N[C@H](C(=O)N[C@H](C(=O)N[C@@H](C)C(=O)N[C@@H](CC(C)C)C(=O)N[C@@H](CC(C)C)C(=O)N[C@@H](CO)C(=O)N[C@H](C(=O)NCC(=O)NCC(=O)NCC(=O)NCC(=O)N[C@@H](CCCCNC(=O)c1ccc2c(c1)C(=O)OC21c2ccc(O)cc2Oc2cc(O)ccc21)C(N)=O)[C@@H](C)O)C(C)C)C(C)C [SEQ ID NO: 458] | 1.20 | 6.1 |
| CC(=O)N[C@@H](C)C(=O)N[C@@H](CCC(N)=O)C(=O)N[C@@H](CC(=O)O)C(=O)N[C@@H](CC(C)C)C(=O)N[C@@H](CCCCN)C(=O)N1CCC[C@H]1C(=O)N[C@@H](Cc1c[nH]c2ccccc12)C(=O)N[C@H](C(=O)N[C@@H](C)C(=O)NCC(=O)N[C@@H](Cc1c[nH]c2ccccc12)C(=O)N[C@@H](CCC(=O)O)C(=O)N1CCC[C@H]1C(=O)N1CCC[C@H]1C(=O)N[C@@H](Cc1c[nH]c2ccccc12)C(=O)N[C@@H](CC(C)C)C(=O)N[C@@H](Cc1c[nH]c2ccccc12)C(=O)N[C@H](C(=O)N[C@@H](CC(=O)O)C(=O)N[C@@H](CCCNC(=N)N)C(=O)NCC(=O)N1CCC[C@H]1C(=O)NCC(=O)NCC(=O)NCC(=O)N[C@@H](CCCCNC(=O)c1ccc2c(c1)C(=O)OC21c2ccc(O)cc2Oc2cc(O)ccc21)C(N)=O)[C@@H](C)O)[C@@H](C)O [SEQ ID NO: 461] | 1.30 | 5.0 |
